The source of these data is patent publication US20240174662A1, “SMALL MOLECULE INHIBITORS OF SALT INDUCIBLE KINASES” (Janssen Biotech, Inc., priority 2021, published 2024).

The structures appear in SMILES notation.

Sequence of SIK2 (Q9H0K1 whole entry, species assumed): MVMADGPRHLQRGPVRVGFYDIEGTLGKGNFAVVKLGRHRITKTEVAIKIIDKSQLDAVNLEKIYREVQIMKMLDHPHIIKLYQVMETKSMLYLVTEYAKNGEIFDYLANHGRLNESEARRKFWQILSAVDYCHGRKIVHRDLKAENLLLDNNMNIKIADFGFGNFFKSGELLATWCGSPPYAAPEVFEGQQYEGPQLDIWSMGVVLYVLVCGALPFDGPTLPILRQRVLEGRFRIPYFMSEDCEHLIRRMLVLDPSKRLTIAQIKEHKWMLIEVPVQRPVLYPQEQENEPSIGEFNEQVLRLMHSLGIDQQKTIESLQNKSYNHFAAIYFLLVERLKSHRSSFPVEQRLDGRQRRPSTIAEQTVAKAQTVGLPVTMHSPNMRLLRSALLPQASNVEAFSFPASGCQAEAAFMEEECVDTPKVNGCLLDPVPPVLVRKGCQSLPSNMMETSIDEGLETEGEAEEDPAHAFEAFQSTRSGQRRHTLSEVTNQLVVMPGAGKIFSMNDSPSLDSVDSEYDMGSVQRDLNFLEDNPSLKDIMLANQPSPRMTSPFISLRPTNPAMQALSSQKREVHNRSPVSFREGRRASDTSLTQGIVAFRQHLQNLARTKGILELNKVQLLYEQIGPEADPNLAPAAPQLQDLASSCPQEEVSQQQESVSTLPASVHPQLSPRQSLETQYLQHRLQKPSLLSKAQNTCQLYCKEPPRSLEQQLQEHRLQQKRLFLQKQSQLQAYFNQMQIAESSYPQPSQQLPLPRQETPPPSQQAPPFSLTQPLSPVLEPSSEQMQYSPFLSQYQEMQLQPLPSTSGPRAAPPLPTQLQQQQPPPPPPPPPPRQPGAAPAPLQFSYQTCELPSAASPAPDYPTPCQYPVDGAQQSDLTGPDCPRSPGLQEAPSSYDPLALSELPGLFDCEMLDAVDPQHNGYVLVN

This test has as its target SIK2 (Homo sapiens (Human), UniProt Q9H0K1). Put plainly: SIK2 Enzymatic Assay Version 2 (High ATP). In kind it is biochemical. Conditions: 3 mM ATP and 200 μM HDAC5tide final, ADP-Glo Max luminescence. An outline of the steps:
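Run at room temperature; SIK2 enzyme at 6 nM (2× final) preincubated with compound 30 min before reaction. ADP formation detected by ADP-Glo Max (2 h reagent, 1 h detection) with luminescence read-out.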
Usually IC50 stands for the concentration that inhibits the measured activity by half. For the compound `Cc1cc(Nc2cc3cc(-c4c(O[C@@H]5CNC[C@@H]5F)noc4C)ccn3n2)nc(C)n1` [Example 92, N-(2,6-dimethylpyrimidin-4-yl)-5-[3-[(3R,4S)-4-fluoropyrrolidin-3-yl]oxy-5-methyl-isoxazol-4-yl]pyrazolo[1,5-a]pyridin-2-amine], half-maximal inhibition (IC50) required 4.3 nM.
In turn, `CN1CC[C@H](Oc2cnn(C)c2-c2ccn3nc(Nc4cccc(C(F)(F)F)n4)cc3c2)C1` [Example 266, 5-[2-methyl-4-[(3S)-1-methylpyrrolidin-3-yl]oxy-pyrazol-3-yl]-N-[6-(trifluoromethyl)-2-pyridyl]pyrazolo[1,5-a]pyridin-2-amine] registered an IC50 of 39.5 nM.
Compound `Cn1ncc(OC[C@H]2CCCN2CCF)c1-c1ccn2nc(NC(=O)C3CC3)cc2c1` [Example 350, N-[5-[4-[[(2R)-1-(2-fluoroethyl)pyrrolidin-2-yl]methoxy]-2-methyl-pyrazol-3-yl]pyrazolo[1,5-a]pyridin-2-yl]cyclopropanecarboxamide] came in with an IC50 of 66.2 nM.
The value for `Cn1ncc(OC[C@H]2CCN2)c1-c1ccn2nc(NC(=O)C3CC3)cc2c1` [Example 346, (R)—N-(5-(4-(azetidin-2-ylmethoxy)-1-methyl-1H-pyrazol-5-yl)pyrazolo[1,5-a]pyridin-2-yl)cyclopropanecarboxamide] was 58.9 nM.
As for `CCN1CCC[C@@H]1COc1cnn(C)c1-c1ccn2nc(NC(=O)C3CC3)cc2c1` [Example 427, N-[5-[4-[[(2R)-1-ethylpyrrolidin-2-yl]methoxy]-2-methyl-pyrazol-3-yl]pyrazolo[1,5-a]pyridin-2-yl]cyclopropanecarboxamide], the figure is 73.5 nM; as for `Cc1cc(Nc2cc3cc(-c4c(OC[C@H]5CCN5)noc4C)ccn3n2)nc(C)n1` [Example 320, 5-[3-[[(2R)-azetidin-2-yl]methoxy]-5-methyl-isoxazol-4-yl]-N-(2,6-dimethylpyrimidin-4-yl)pyrazolo[1,5-a]pyridin-2-amine], 50.8 nM; as for `CN1CC(COc2cnn(C)c2-c2ccn3nc(NC(=O)C4CC4)cc3c2)C1` [Example 8, N-[5-[2-methyl-4-[(1-methylazetidin-3-yl)methoxy]pyrazol-3-yl]pyrazolo[1,5-a]pyridin-2-yl]cyclopropanecarboxamide], 18.9 nM.
The compound `CN1CC[C@@H]1COc1cnn(C)c1-c1ccn2nc(NC(=O)C3CC3(F)F)cc2c1` (stereo partly drawn) [Example 72, 2,2-difluoro-N-[5-[2-methyl-4-[[(2R)-1-methylazetidin-2-yl]methoxy]pyrazol-3-yl]pyrazolo[1,5-a]pyridin-2-yl]cyclopropanecarboxamide] came in with an IC50 of 52.1 nM.
`Cn1ncc(CO[C@@H]2CCNC2)c1-c1ccn2nc(NC(=O)C3CC3)cc2c1` [Example 182, N-[5-[2-methyl-4-[[(3R)-pyrrolidin-3-yl]oxymethyl]pyrazol-3-yl]pyrazolo[1,5-a]pyridin-2-yl]cyclopropanecarboxamide]: the concentration for half-maximal inhibition (IC50) was 34.4 nM.
The value for `Cc1cc(Nc2cc3cc(-c4c(OC[C@@H]5CC(=O)N(C)C5)cnn4C)ccn3n2)nc(C)n1` (single isomer, unassigned) [Example 35, *R-4-[[5-[2-[(2,6-dimethylpyrimidin-4-yl)amino]pyrazolo[1,5-a]pyridin-5-yl]-1-methyl-pyrazol-4-yl]oxymethyl]-1-methyl-pyrrolidin-2-one] was 19.2 nM; that for `C[C@@H]1CN(C)C[C@@H]1Oc1cnn(C)c1-c1ccn2nc(NC(=O)C3CC3)cc2c1` (single isomer, unassigned) [Example 418, (3*R,4*R)—N-[5-[4-(1,4-dimethylpyrrolidin-3-yl)oxy-2-methyl-pyrazol-3-yl]pyrazolo[1,5-a]pyridin-2-yl]cyclopropanecarboxamide] was 102 nM.
The value for `C[C@@H]1CNC[C@@H]1OCc1cnn(C)c1-c1ccn2nc(NC(=O)C3CC3)cc2c1` (single isomer, unassigned) [Example 196, (3*R, 4*R)—N-[5-[2-methyl-4-[(4-methylpyrrolidin-3-yl)oxymethyl]pyrazol-3-yl]pyrazolo[1,5-a]pyridin-2-yl]cyclopropanecarboxamide] was 24.7 nM.
The value for `Cc1cc(Nc2cc3cc(-c4c(OC[C@H]5CCN5C)cnn4C)ccn3n2)nc(C(=O)N(C)C)n1` [Example 110, N,N,4-trimethyl-6-[[5-[2-methyl-4-[[(2R)-1-methylazetidin-2-yl]methoxy]pyrazol-3-yl]pyrazolo[1,5-a]pyridin-2-yl]amino]pyrimidine-2-carboxamide] was 2.8 nM; that for `Cc1onc(OC[C@H]2C[C@H](N)C2)c1-c1ccn2nc(NC(=O)C3CC3)cc2c1` [Example 387, N-[5-[3-[(3-aminocyclobutyl)methoxy]-5-methyl-isoxazol-4-yl]pyrazolo[1,5-a]pyridin-2-yl]cyclopropanecarboxamide] was 85.8 nM; that for `COCc1cc(Nc2cc3cc(-c4c(O[C@H]5CCN(C)C5)cnn4C)ccn3n2)ncn1` [Example 461, N-[6-(methoxymethyl)pyrimidin-4-yl]-5-[2-methyl-4-[(3S)-1-methylpyrrolidin-3-yl]oxy-pyrazol-3-yl]pyrazolo[1,5-a]pyridin-2-amine] was 72.4 nM.
With `COC1(COc2noc(C)c2-c2ccn3nc(NC(=O)C4CC4)cc3c2)CNC1` [Example 76, N-[5-[3-[(3-methoxyazetidin-3-yl)methoxy]-5-methyl-isoxazol-4-yl]pyrazolo[1,5-a]pyridin-2-yl]cyclopropanecarboxamide], the IC50 was 12.2 nM.
The value for `Cc1onc(OC[C@H](c2ccccn2)N(C)C)c1-c1ccn2nc(NC(=O)C3CC3)cc2c1` [Example 325, N-[5-[3-[(2S)-2-(dimethylamino)-2-(2-pyridyl)ethoxy]-5-methyl-isoxazol-4-yl]pyrazolo[1,5-a]pyridin-2-yl]cyclopropanecarboxamide] was 63.2 nM; that for `CN1CC[C@@H]1COc1cnn(C)c1-c1ccn2nc(Nc3ccc4cnccc4n3)cc2c1` [Example 125, N-[5-[2-methyl-4-[[(2R)-1-methylazetidin-2-yl]methoxy]pyrazol-3-yl]pyrazolo[1,5-a]pyridin-2-yl]-1,6-naphthyridin-2-amine] was 1.3 nM; that for `C[C@@H]1CNC[C@@H]1Oc1cnn(C)c1-c1ccn2nc(NC(=O)C3CC3)cc2c1` (single isomer, unassigned) [Example 238, (3*R, 4*R)—N-[5-[2-methyl-4-(4-methylpyrrolidin-3-yl)oxy-pyrazol-3-yl]pyrazolo[1,5-a]pyridin-2-yl]cyclopropanecarboxamide] was 34.8 nM.
For the compound `CCN1CC[C@@H]1COc1cnn(C)c1-c1ccn2nc(Nc3cnc(OC)cn3)cc2c1` [Example 180, 5-[4-[[(2R)-1-ethylazetidin-2-yl]methoxy]-2-methyl-pyrazol-3-yl]-N-(5-methoxypyrazin-2-yl)pyrazolo[1,5-a]pyridin-2-amine], the midpoint of inhibition, the IC50, lay at 2.1 nM.
Compound `Cc1ccc(Nc2cc3cc(-c4c(OC[C@H]5CCN5C)cnn4C)ccn3n2)nn1` [Example 39, 5-[2-methyl-4-[[(2R)-1-methylazetidin-2-yl]methoxy]pyrazol-3-yl]-N-(6-methylpyridazin-3-yl)pyrazolo[1,5-a]pyridin-2-amine] came in with an IC50 of 3.4 nM.
The value for `Cc1cc(Nc2cc3cc(-c4c(OC[C@@H](O)C56CC(C5)C6)cnn4C)ccn3n2)nc(C)n1` (stereo in doubt) [Example 306, (*S)-1-(3-bicyclo[1.1.1]pentanyl)-2-[5-[2-[(2,6-dimethylpyrimidin-4-yl)amino]pyrazolo[1,5-a]pyridin-5-yl]-1-methyl-pyrazol-4-yl]oxy-ethanol] was 36.1 nM.
As to `Cn1ncc(OC[C@H]2CCN2c2ccccn2)c1-c1ccn2nc(NC(=O)C3CC3)cc2c1` [Example 436, N-[5-[2-methyl-4-[[(2R)-1-(2-pyridyl)azetidin-2-yl]methoxy]pyrazol-3-yl]pyrazolo[1,5-a]pyridin-2-yl]cyclopropanecarboxamide], inhibition was half-maximal at 79 nM (IC50).
The value for `CN1CC[C@H](OCc2cnn(C)c2-c2ccn3nc(NC(=O)C4CC4)cc3c2)C1` [Example 464, N-[5-[2-methyl-4-[[(3S)-1-methylpyrrolidin-3-yl]oxymethyl]pyrazol-3-yl]pyrazolo[1,5-a]pyridin-2-yl]cyclopropanecarboxamide] was 82.8 nM; that for `Cc1cnc(Nc2cc3cc(-c4c(CO[C@@H]5CN(C)C[C@H]5C)cnn4C)ccn3n2)cn1` (stereo in doubt) [Example 377, CIS—*R, *R-5-[4-[(1,4-dimethylpyrrolidin-3-yl)oxymethyl]-2-methyl-pyrazol-3-yl]-N-(5-methylpyrazin-2-yl)pyrazolo[1,5-a]pyridin-2-amine] was 14.8 nM; that for `CCC1(OCc2cnn(C)c2-c2ccn3nc(NC(=O)C4CC4)cc3c2)CN(C)C1` [Example 468, N-[5-[4-[(3-ethyl-1-methyl-azetidin-3-yl)oxymethyl]-2-methyl-pyrazol-3-yl]pyrazolo[1,5-a]pyridin-2-yl]cyclopropanecarboxamide] was 81.7 nM.
In turn, `CN1CC[C@H](Oc2cnn(C)c2-c2ccn3nc(Nc4cnccn4)cc3c2)C1` [Example 450, 5-[2-methyl-4-[(3S)-1-methylpyrrolidin-3-yl]oxy-pyrazol-3-yl]-N-pyrazin-2-yl-pyrazolo[1,5-a]pyridin-2-amine] displayed an IC50 of 75.1 nM.
In turn, `Cc1cc(Nc2cc3cc(-c4c(OC[C@H]5CCN5)cnn4C)ccn3n2)nnc1C` [Example 275, 5-[4-[[(2R)-azetidin-2-yl]methoxy]-2-methyl-pyrazol-3-yl]-N-(5,6-dimethylpyridazin-3-yl)pyrazolo[1,5-a]pyridin-2-amine] gave an IC50 of 32.2 nM.
In turn, `CN1CC2(CCOCC2)[C@H]1COc1cnn(C)c1-c1ccn2nc(NC(=O)C3CC3)cc2c1` (single isomer, unassigned) [Example 59, (*S)—N-[5-[2-methyl-4-[(2-methyl-7-oxa-2-azaspiro[3.5]nonan-3-yl)methoxy]pyrazol-3-yl]pyrazolo[1,5-a]pyridin-2-yl]cyclopropanecarboxamide] yielded an IC50 of 690 nM.
